These results are taken from US9261498B2, “Biomarker for sensitivity to mTOR inhibitor therapy in kidney cancer” (The Regents of the University of California, priority 2005, dated 2016).

In the test the test system is mTOR. Description: Immunoblot of p-S6 and p-eIF4G in cell lysates (mTOR activity). It counts as cell-based, human. Here is the method:
(a) SN12C-CSCG and SN12C-VHLshRNA cell were treated with vehicle, 1 nM or 10 nM of CCI-779 and lysed 24 hours later. Lysates were subjected to immunoblotting for HIF-1α, HIF-2α, GLUT-1, CA-IX, p-eIF4G, p-S6 Ribosomal protein. Equal protein loading was verified using anti-β-actin antibody. (b) HIF-1α expression was probed by immunoblotting in SN12C-MSCV-5′TOP-HIF-1α cDNA (left panel) and SN12C-MSCV-HIF-1α cDNA (tight panel) post 24 hours of vehicle, 1 nM or 10 nM of CCI-779.
FIGS. 4A-4C. Rescue of CCI-779 growth suppression by HIF-1-α and HIF-2-α prolyl hydcroxylase mutants. […] Cell growth was measured by cell counts (n=3). […]
Cells and xenograft tumors were lysed in ECB lysis buffer (see, e.g. Kondo et al., Cancer Cell 1, 237-46 (2002)) or high-detergent buffer (2% SDS), (see, e.g. Chen et al., Nat Med 10, 33-9 (2004)), respectively, supplemented with complete protease and phosphatase inhibitor cocktails (Calbiochem). […] Bound antibody was detected using enhanced chemiluminescence (ECL, Amersham). For VEGF ELISA quantification, cells were plated in 6 well plates (1×10^5 per well). […] Thirty-six hours later, VEGF ELISA (R&D Systems) was performed according to the manufacturer's instructions, using a Fisher Plate reader. […]
(Immunoblotting shows a protein as a band on a membrane.)

“Also recorded” adds a separate entry of the source.

Regarding `CO[C@H]1C[C@@H]2CC[C@@H](C)[C@@](O)(O2)C(=O)C(=O)N2CCCC[C@H]2C(=O)O[C@H]([C@H](C)C[C@@H]2CC[C@@H](OC(=O)C(C)(CO)CO)[C@H](OC)C2)CC(=O)[C@H](C)/C=C(\C)[C@@H](O)[C@@H](OC)C(=O)[C@H](C)C[C@H](C)/C=C/C=C/C=C/1C` [CCI-779], the “phosphorylation of S6 and eIF4G” value is, setting by setting: (VHL knockdown cells expressing HIF-1α/HIF-2α mutants) “decreased phosphorylation”; (parental and VHL knockdown cells, 1 and 10 nM CCI-779) “reduced phosphorylation; also recorded: reduction in phosphorylation”.
